The values below are quoted from earlier work in article PMC7113793 (Antiviral Research, 2017).

Usually IC50 stands for the concentration that inhibits the measured activity by half.

The target in data set [1] is Citrullus vulgaris urease. As to conditions: read-out: Kis.
For data set [2], the target named is Giardia lamblia carbamate kinase.
A further data set has as its system aldehyde dehydrogenase. The settings on record: in vivo.

Molecules are shown by their SMILES.

For `O=C(O)CN(CCN(CC(=O)O)CC(=O)O)CC(=O)O` [EDTA], in the data set on PL^pro, the “loss of PL^pro activity” value is listed as 62%.

Regarding `CCN(CC)C(=S)SSC(=S)N(CC)CC` [disulfiram], the Ki in data set [1] was 67.6 µM. Further, the IC50 in data set [2] is 0.6 to 1.4 µM. In addition, the “enzyme inhibition as compared to the activity of the control” value with aldehyde dehydrogenase is listed as 77%.
